Data published in article PMC8765048 (JCI Insight, 2022).
Read-outs that look alike come from different tables or passages of the source.

Experiments:
A549 cells = assay: Phospholipidosis imaging (NBD-PE fluorescence); details: 24 h, sangivamycin up to 5 μM, melperone 10 μM, amiodarone positive control
SARS-CoV-2 WA1 [1] = assay: microbe, parasite or virus in culture; format: cell-based; details: for IC50: read-out: IC50
[2] = system: COVID-19 higher risk individuals; set-up: method as in earlier work; details: phase III clinical trial with 1433 patients, FDA advisory committee analysis; cited from earlier work
SARS-CoV-2 P.1 (Gamma) [3] = assay: microbe, parasite or virus in culture; format: cell-based; details: Severe acute respiratory syndrome coronavirus 2, Calu-3, 24 h
[4] = system: SARS-CoV-2 B.1.429 (Epsilon); assay: microbe, parasite or virus in culture; format: cell-based; details: Severe acute respiratory syndrome coronavirus 2, Calu-3, 24 h
SARS-CoV-2 P.2 (Zeta) [5] = assay: microbe, parasite or virus in culture; format: cell-based; details: Severe acute respiratory syndrome coronavirus 2, Vero C1008, 24 h
SARS-CoV-2 P.2 (Zeta) [6] = assay: microbe, parasite or virus in culture; format: cell-based; details: Severe acute respiratory syndrome coronavirus 2, Calu-3, 24 h
[7] = system: SARS-CoV-2 B.1.427 (Epsilon); assay: microbe, parasite or virus in culture; format: cell-based; details: Severe acute respiratory syndrome coronavirus 2, Vero C1008, 24 h
SARS-CoV-2 P.1 (Gamma) [8] = assay: microbe, parasite or virus in culture; format: cell-based; details: Severe acute respiratory syndrome coronavirus 2, Vero C1008, 24 h
SARS-CoV-2 [9] = assay: Combinatorial sangivamycin/remdesivir efficacy testing, Vero E6 cells; format: cell-based; details: Severe acute respiratory syndrome coronavirus 2, Vero C1008; read-out: IC50 (nM), S:R by [Remdesivir]
SARS-CoV-2 [10] = assay: Combinatorial sangivamycin/remdesivir efficacy testing, Calu-3 cells; format: cell-based; details: Severe acute respiratory syndrome coronavirus 2, Calu-3; read-out: IC50 (nM), S:R by [Remdesivir]
[11] = system: SARS-CoV-2 B.1.351 (Beta); assay: microbe, parasite or virus in culture; format: cell-based; details: Severe acute respiratory syndrome coronavirus 2, Calu-3, 48 h
[12] = laboratory mouse liver, lung, and kidney microsomes; cited from earlier work
SARS-CoV-2 WA1 [13] = assay: microbe, parasite or virus in culture; format: cell-based; details: Severe acute respiratory syndrome coronavirus 2, Calu-3, 72 h
[14] = mice; cited from earlier work
[15] = system: SARS-CoV-2 B.1.427 (Epsilon); assay: microbe, parasite or virus in culture; format: cell-based; details: Severe acute respiratory syndrome coronavirus 2, Calu-3, 24 h
[16] = system: SARS-CoV-2 B.1.1.7 (Alpha); assay: microbe, parasite or virus in culture; format: cell-based; details: Severe acute respiratory syndrome coronavirus 2, Vero C1008, 24 h
[17] = system: SARS-CoV-2 B.1.351 (Beta); assay: microbe, parasite or virus in culture; format: cell-based; details: Severe acute respiratory syndrome coronavirus 2, Vero C1008, 18 h
[18] = system: SARS-CoV-2 B.1.617.2 (Delta); assay: microbe, parasite or virus in culture; format: cell-based; details: Severe acute respiratory syndrome coronavirus 2, VeroE6/TMPRSS2, 18 h
[19] = system: SARS-CoV-2 B.1.617.2 (Delta); assay: microbe, parasite or virus in culture; format: cell-based; details: Severe acute respiratory syndrome coronavirus 2, Calu-3, 24 h
[20] = system: SARS-CoV-2 B.1.1.7 (Alpha); assay: microbe, parasite or virus in culture; format: cell-based; details: Severe acute respiratory syndrome coronavirus 2, Calu-3, 24 h
[21] = system: SARS-CoV-2 B.1.429 (Epsilon); assay: microbe, parasite or virus in culture; format: cell-based; details: Severe acute respiratory syndrome coronavirus 2, Vero C1008, 48 h
SARS-CoV-2 [22] = assay: Combinatorial sangivamycin/remdesivir efficacy testing, Caco-2 cells; format: cell-based; details: Severe acute respiratory syndrome coronavirus 2, Caco-2; read-out: IC50 (nM), S:R by [Remdesivir]
SARS-CoV-2 WA1 [23] = assay: microbe, parasite or virus in culture; format: cell-based; details: Severe acute respiratory syndrome coronavirus 2, Caco-2, 96 h
[24] = 24-hour plasma pharmacokinetics in CD-1 laboratory mice; format: in vivo, mouse; details: CD-1 mice, sangivamycin i.p. 60 mg/kg; not in control mice
Method: We next evaluated the 24-hour pharmacokinetics (PK) of sangivamycin in CD-1 laboratory mouse plasma. Sangivamycin’s plasma concentrations increased following i.p. injection of 60 mg/kg to a peak at 2 hours, then decreased over 6 or 8 hours, and remained virtually unchanged up to 24 hours after dosing. […] Graphing plasma concentration versus time produced an area under the curve to the last time point with values of 632 ± 66.6 h•ng/mL for males and 833 ± 53.9 h•ng/mL for females. […] Our data corroborate historical PK studies in mice with ^3H-labeled sangivamycin performed at the NCI in 1974 ([20]). In these studies, free nucleoside and mono-, di-, and triphosphate forms of sangivamycin were detected in blood, urine, and multiple tissues (e.g., heart, liver, brain, spleen, and kidneys) following i.p. injection of 8 mg/kg. The studies established that sangivamycin was phosphorylated after transportation into cells. In liver, heart, and brain, the predominant form of sangivamycin was sangivamycin 5′-monophosphate (SMP). […] Therefore, we determined the level of SMP in blood in our PK study using a published liquid chromatography–tandem mass spectrometry (LC-MS/MS) method with a lower limit of quantification of 1 ng/mL ([33]). Using this method, we detected SMP in the plasma of dosed mice but not control mice (Supplemental Figure 9B). The apparent levels of SMP increased in blood during the 24 hours of this study. There also was possible presence of a diphosphate metabolite of sangivamycin, but it was detected only in the plasma samples taken 24 hours after dosing.

[25] = Severe acute respiratory syndrome coronavirus 2, Vero C1008, 48 h

Q: For `CCCCc1oc2ccccc2c1C(=O)c1cc(I)c(OCCN(CC)CC)c(I)c1` [Amiodarone, reference compound], which “NBD-PE fluorescence (phospholipidosis)” value (A549 cells) is on record?
A: Its value is “induced NBD-PE fluorescence”.

Q: Which “IC50 fold higher than the IC50 of sangivamycin” value (SARS-CoV-2 WA1 [1]) does the source give for `N#C[C@@]1(c2ccc3c(N)ncnn23)O[C@H](CO)[C@@H](O)[C@H]1O` [GS-441524, reference compound] here?
A: The value was 27 fold.

Q: And the IC50 (SARS-CoV-2 WA1 [1]; Severe acute respiratory syndrome coronavirus 2, Vero C1008)?
A: The IC50 was 1.42 ± 0.02 µM.

Q: With `CC(C)C(=O)OC[C@H]1O[C@@H](n2ccc(NO)nc2=O)[C@H](O)[C@@H]1O` [Molnupiravir] as the molecule, how does the “reduction of risk for hospitalization and death” value [2] read?
A: The value was 30%.

Q: What does the source list for `CCC(CC)COC(=O)[C@H](C)N[P@](=O)(OC[C@H]1O[C@@](C#N)(c2ccc3c(N)ncnn23)[C@H](O)[C@@H]1O)Oc1ccccc1` [Remdesivir, remdesivir, reference compound]?
A: IC50 (SARS-CoV-2 P.1 (Gamma) [3]): 1.71 µM; IC90 (SARS-CoV-2 P.1 (Gamma) [3]): 6.27 µM; IC50 [4]: 2.8 µM; IC90 [4]: > 10 µM; IC50 (SARS-CoV-2 P.2 (Zeta) [5]): 1.56 µM; IC90 (SARS-CoV-2 P.2 (Zeta) [5]): 4.91 µM; IC50 (SARS-CoV-2 P.2 (Zeta) [6]): 0.791 µM; IC90 (SARS-CoV-2 P.2 (Zeta) [6]): 4.8 µM; IC50 [7]: 1.27 µM; IC90 [7]: 3.28 µM; IC50 (SARS-CoV-2 P.1 (Gamma) [8]): 0.702 µM; IC90 (SARS-CoV-2 P.1 (Gamma) [8]): 3.68 µM; IC50 (SARS-CoV-2 [9]): 2320 nM; IC50 (SARS-CoV-2 [10]): 4470 nM; IC50 [11]: 0.951 µM; IC90 [11]: 2.29 µM; time within which remdesivir and its monophosphate are lost [12]: ≤ 10 min; IC50 (SARS-CoV-2 WA1 [13]): 4.49 µM; IC90 (SARS-CoV-2 WA1 [13]): 8.19 µM; half-lives (free nucleoside and monophosphate forms) [14]: about 5 hours; IC50 [15]: 1.5 µM; IC90 [15]: 6.09 µM; IC50 [16]: 1.42 µM; IC90 [16]: 3.68 µM; IC50 [17]: 2.37 µM; IC90 [17]: 4.03 µM; IC50 [18]: 5.46 µM; IC90 [18]: > 10 µM; IC50 [19]: 2.91 µM; IC90 [19]: > 10 µM; IC50 [20]: 3.18 µM; IC90 [20]: > 10 µM; IC50 [21]: 1.77 µM; IC90 [21]: 2.47 µM; IC50 (SARS-CoV-2 [22]): 17.6 nM; IC50 (SARS-CoV-2 WA1 [23]): 0.003 µM; IC90 (SARS-CoV-2 WA1 [23]): 0.013 µM; IC90 (SARS-CoV-2 WA1 [1]; [25]): 3.53 µM; IC50 (SARS-CoV-2 WA1 [1]; [25]): 2.27 µM

Q: With `NC(=O)c1cn(C2OC(COP(=O)(O)O)C(O)C2O)c2ncnc(N)c12` (centres unmarked) [SMP, sangivamycin 5′-monophosphate] as the molecule, how does the “presence in plasma of sangivamycin-dosed mice (LC-MS/MS)” value [24] read?
A: Its value is “detected”.
